Test results reported in paper PMC8343220, “The selectivity of α‐adrenoceptor agonists for the human α1A, α1B, and α1D‐adrenoceptors” (Pharmacology Research & Perspectives, 2021).

Legend:
[1] = tested on: parental CHO cell line without any transfected receptors; experiment: ERK1/2‐phosphorylation, parent CHO cells without transfected receptors; format: cell-based, Chinese hamster; details: for ERK1/2-phosphorylation % PDBu: maximal response as % of PDBu (10μM) response
[2] = tested on: parental CHO cell line without any transfected receptors; experiment: Forskolin‐stimulated cAMP accumulation, parent CHO cells without transfected receptors; format: cell-based, Chinese hamster; details: CHO cells without transfected receptors; in presence of forskolin
[3] = molecular target: T1, human α1D‐adrenoceptor (full length) (Homo sapiens, UniProt P25100); experiment: ERK1/2‐phosphorylation (Surefire Alphascreen), CHO‐α1D cells; format: cell-based; details: CHO‐α1D cells; for ERK1/2‐phosphorylation % PDBu: maximal response as % of PDBu
T1 construct: human α1D‐adrenoceptor (full length) were used; expressed in transfected cells; host or cells: CHO-K1
T1 sequence (P25100 1-572): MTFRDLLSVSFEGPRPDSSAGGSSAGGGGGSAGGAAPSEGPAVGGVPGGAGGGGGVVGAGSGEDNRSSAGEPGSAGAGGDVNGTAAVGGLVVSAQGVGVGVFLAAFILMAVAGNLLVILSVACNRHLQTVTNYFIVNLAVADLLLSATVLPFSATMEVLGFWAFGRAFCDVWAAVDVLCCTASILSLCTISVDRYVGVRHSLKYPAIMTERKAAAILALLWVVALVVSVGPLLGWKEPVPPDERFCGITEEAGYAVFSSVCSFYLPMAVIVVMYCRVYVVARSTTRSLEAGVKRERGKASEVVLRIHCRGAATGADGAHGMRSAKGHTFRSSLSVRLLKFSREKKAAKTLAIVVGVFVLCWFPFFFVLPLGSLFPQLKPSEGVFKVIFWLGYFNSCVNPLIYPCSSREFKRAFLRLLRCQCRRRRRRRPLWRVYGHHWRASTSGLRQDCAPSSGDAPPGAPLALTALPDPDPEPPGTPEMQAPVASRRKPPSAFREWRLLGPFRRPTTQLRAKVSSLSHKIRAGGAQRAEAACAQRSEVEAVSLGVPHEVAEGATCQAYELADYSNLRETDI

human α1B‐adrenoceptor [4] = molecular target: T2, human α1B‐adrenoceptor (Homo sapiens, UniProt P35368); experiment: ERK1/2‐phosphorylation (Surefire Alphascreen), CHO‐α1B cells; format: cell-based; details: CHO‐α1B cells; maximal response as % PDBu response; for bi‐phasic responses the initial stimulatory part
T2 construct: expressed in transfected cells; host or cells: CHO-K1
T2 sequence (P35368 1-520): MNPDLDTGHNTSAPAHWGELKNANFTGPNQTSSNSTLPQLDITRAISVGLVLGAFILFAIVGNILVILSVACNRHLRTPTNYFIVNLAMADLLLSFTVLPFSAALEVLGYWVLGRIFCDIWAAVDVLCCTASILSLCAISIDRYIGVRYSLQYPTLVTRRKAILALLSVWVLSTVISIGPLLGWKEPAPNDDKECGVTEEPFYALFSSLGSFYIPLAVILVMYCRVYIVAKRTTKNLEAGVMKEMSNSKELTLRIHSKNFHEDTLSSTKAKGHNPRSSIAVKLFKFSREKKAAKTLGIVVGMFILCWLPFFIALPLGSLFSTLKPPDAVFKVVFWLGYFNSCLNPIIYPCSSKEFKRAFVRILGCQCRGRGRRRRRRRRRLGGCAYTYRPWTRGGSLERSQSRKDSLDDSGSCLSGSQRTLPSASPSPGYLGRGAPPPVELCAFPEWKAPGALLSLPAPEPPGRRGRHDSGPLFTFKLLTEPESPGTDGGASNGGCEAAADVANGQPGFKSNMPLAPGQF

human α1B‐adrenoceptor [5] = molecular target: T2, human α1B‐adrenoceptor; experiment: Intracellular free calcium mobilization, CHO‐α1B cells; format: cell-based; details: CHO‐α1B cells; maximal response as % of 10 µM ionomycin response
[6] = molecular target: T1, human α1D‐adrenoceptor (full length); experiment: Intracellular free calcium mobilization, CHO‐α1D cells; format: cell-based; details: CHO‐α1D cells; response at 100 µM ligand (no EC50 given)
human α1A‐adrenoceptor [7] = molecular target: T3, human α1A‐adrenoceptor (Homo sapiens, UniProt P35348); experiment: ^3H‐cAMP accumulation, CHO‐α1A cells; format: cell-based; details: CHO‐α1A cells; % of 10 µM forskolin response
T3 construct: expressed in transfected cells; host or cells: CHO-K1
T3 sequence (P35348 1-466): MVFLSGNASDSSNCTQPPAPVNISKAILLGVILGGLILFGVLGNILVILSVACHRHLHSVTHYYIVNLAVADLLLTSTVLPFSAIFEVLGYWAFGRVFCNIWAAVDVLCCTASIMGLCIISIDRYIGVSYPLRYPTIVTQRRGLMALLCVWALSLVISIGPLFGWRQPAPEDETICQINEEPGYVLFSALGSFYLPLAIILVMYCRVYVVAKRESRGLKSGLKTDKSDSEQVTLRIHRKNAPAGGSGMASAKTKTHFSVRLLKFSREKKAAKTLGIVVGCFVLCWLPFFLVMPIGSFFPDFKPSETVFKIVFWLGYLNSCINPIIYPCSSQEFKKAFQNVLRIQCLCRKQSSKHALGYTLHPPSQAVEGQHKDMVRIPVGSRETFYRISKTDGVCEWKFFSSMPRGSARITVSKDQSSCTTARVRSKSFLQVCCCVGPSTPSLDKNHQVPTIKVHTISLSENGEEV

human α1B‐adrenoceptor [8] = molecular target: T2, human α1B‐adrenoceptor; experiment: ^3H‐prazosin whole‐cell radioligand binding, CHO‐α1B cells; details: Log KD α1B, ^3H‐prazosin whole cell binding, CHO‐α1B cells; given as log KD (negative); mean ± SEM
[9] = molecular target: T1, human α1D‐adrenoceptor (full length); experiment: ^3H‐prazosin whole‐cell radioligand binding, CHO‐α1D cells; details: CHO‐α1D cells
human α1A‐adrenoceptor [10] = molecular target: T3, human α1A‐adrenoceptor; experiment: Intracellular free calcium mobilization, CHO‐α1A cells; format: cell-based
human α1A‐adrenoceptor [11] = molecular target: T3, human α1A‐adrenoceptor; experiment: ERK1/2‐phosphorylation (Surefire Alphascreen), CHO‐α1A cells; format: cell-based
human α1A‐adrenoceptor [12] = molecular target: T3, human α1A‐adrenoceptor; experiment: ^3H‐cAMP accumulation in the presence of 10 μM forskolin, CHO‐α1A cells; format: cell-based; details: CHO‐α1A cells; fold increase of the forskolin response
[13] = CHO cells without transfected receptors, mean ± s.e.m.

Compound	ERK1/2-phosphorylation % PDBu [1, 13]	cAMP accumulation (in presence of forskolin) Log EC50 [2]	ERK1/2‐phosphorylation % PDBu [3]	Intracellular calcium release % Ionomycin at 100 µM [6] [%]	cAMP accumulation % forskolin (human α1A‐adrenoceptor [7])	also measured
Nc1cc(Cl)c(N=C2NCCN2)c(Cl)c1 [Para-amino-clonidine]	No response	No response				
CC(C)NCC(O)c1ccc(O)c(O)c1 (stereo not shown) [Isoprenaline]		No response	8.5 ± 1.7%	3.6 ± 1.2	16.2 ± 3.0%	Emax at 100 µM ([1]; Cricetulus griseus, CHO, read-out: ERK1/2-phosphorylation % PDBu at 100μM): 5.1 ± 4.6%; ERK1/2‐phosphorylation % PDBu (human α1B‐adrenoceptor [4]): 77.8 ± 8.5%; Intracellular calcium release % ionomycin (human α1B‐adrenoceptor [5]): 53.9 ± 3.3%
c1ccc2c(c1)CCCC2C1=NCCN1 (stereo not shown) [Tetrahydrozoline]	No response	No response	No response	2.3 ± 1.1		ERK1/2-phosphorylation Log EC50 [1, 13]: No response; ERK1/2‐phosphorylation Log EC50 ([3]; log values given negative): No response; Kd (human α1B‐adrenoceptor [8]): 6.03 µM; Kd ([9]; 3H‐prazosin binding Log KD, whole‐cell binding (from Table 1), log values given negative): 4.57 µM; Kd ([9]; Log KD α1D, ^3H‐prazosin whole cell binding, given as log KD (negative), mean ± SEM, 'early plateau' = specific binding not fully inhibited): 4.57 µM
CNC[C@H](O)c1cccc(O)c1 [R-phenylephrine]	No response	No response				
Bromocryptine					No response	Intracellular calcium release % ionomycin (human α1A‐adrenoceptor [10]): 20.0 ± 3.0%; Log efficacy ratio KD /EC50 (human α1A‐adrenoceptor [10]): −1.42; ERK1/2‐phosphorylation % PDBu (human α1A‐adrenoceptor [11]): 61.2 ± 10.3%; cAMP accumulation (in presence of forskolin) Fold increase (human α1A‐adrenoceptor [12]): No response
